Assay results reported in patent publication US12391683B2, “Therapeutic compounds and methods” (Actio Biosciences, Inc., priority 2022, dated 2025).
Values joined by “and” are separate entries in the source; they are usually repeats but may differ in a detail not shown here. Identical values can stand only once.

Assays:
[1] = molecular target: recombinant human CYP3A4 enzyme (Homo sapiens, UniProt P08684); experiment: CYP3A4 incubation assay; assay type: in vitro ADME; parameters: Metabolic Stability in Recombinant Human CYP3A4 + NADPH (% remaining after 25 min): dose or concentration left out as unconfirmed
Experimental: Example 24. CYP3A4 Incubation Assay
Compounds (final concentration […]) were incubated in 100 mM phosphate buffer containing 100 pmol/mL recombinant human CYP3A4 enzyme for 0, 5, 10, 15 and 25 minutes.
Testosterone was used as positive control. Reaction was initiated by the addition of NADPH (final concentration […]) and carried out at 37° C. The reaction was stopped by the addition of 4 volumes of cold acetonitrile (with 100 nM alprazolam, 200 nM labetalol, 200 nM imipramine and 2 μM ketoprofen as internal standards). Samples were centrifuged at 3,220 g for 40 minutes to precipitate protein. 70 μL supernatant was transferred to the analysis plate containing 110 μL of acetonitrile for LC-MS/MS analysis.
The following table indicates the percentage remaining for the indicated examples after incubation with recombinant Human CYP3A4 after 25 minutes under the same conditions as described for Example […].

Hepatocytes [2] = experiment: Hepatocytes predicted clearance, rat
Hepatocytes [3] = experiment: Hepatocytes predicted clearance, dog
Hepatocytes [4] = experiment: Hepatocytes predicted clearance, cyno
Hepatocytes [5] = experiment: Hepatocytes predicted clearance, mouse
Hepatocytes [6] = experiment: Hepatocytes predicted clearance, human
Human TRPV4 = Human TRPV4 (Homo sapiens, UniProt Q9HBA0); experiment: TRPV4 calcium flux assay (FLIPR, antagonist mode); assay type: cell-based; parameters: HiBiT (inferred from the expression read-out); host or cells: HEK293T; settings: HEK293T cells transfected with hTRPV4; antagonist mode vs EC80 of TRPV4 agonist; average of at least 3 separate experiments; read-out: Human TRPV4 Ca2+ Assay IC50
Experimental: Example 23. TRPV4 Calcium Assay Methods
Human embryonic kidney 293T (HEK293T/293T) cells are cultured in complete media (Dulbecco's Modified Eagle Medium (DMEM), containing 10% fetal bovine serum (FBS) and 1× penicillin-streptomycin) in a T-75 tissue culture flask. At 90% confluency, cells are detached using TrypLE™ Express cell dissociation buffer. TrypLE™ Express buffer is neutralized by adding culture media in excess. Cells are gently triturated and counted using trypan blue in a Countess 3 automated cell counter. Cells are transferred to a 50 mL conical tube and spun down at 1000 rotations per minute (RPM) for five minutes in a benchtop centrifuge. Media containing detaching enzyme is aspirated off the pellet, followed by resuspension to the desired concentration of 2×10^6 cells per mL in complete DMEM.
Transfection preparations were scaled using a combination of 6 μg of TRPV4 wild-type or mutant plasmid DNA, 36 μL of Fugene6 transfection reagent, and 1000 μL of OptiMEM media for every 2×10^6 cells needed. The transfection mix is left to incubate for 20 minutes at room temperature. Total seeding mixture (1000 μL 2×10^6 cells, 1000 μL transfection mix previously described, and 1000 μL complete DMEM) for one transfection is combined into a 15 mL conical tube. The cells and transfection plasmid are mixed thoroughly and dispensed into a reservoir. This is plated at 25 μL per well in a black 384, black-well, clear-bottom, tissue-culture treated plate. This yields approximately 16,000 cells per well. Plasmid DNA constructs were designed by Actio Biosciences in conjunction with Genscript, and generated by Genscript, for all hTRPV4 wild-type and hTRPV4 P/LP (ClinVar) mutations (G78W, P82S, T891, P97R, R186Q, R232C, R232P, R237G, R237Q, R237 L, R269C, R269H, R269S, G270V, R271P, F273 L, K276E, E278K, G280S, Y281S, R315G, R315W, R316C, R316H, R316 L, R316S, I331F, D333G, S403T, K403T, K407E, S542P, S542Y, L543R, Y591N, R594C, R594H, R594S, G600E, Y602C, R616Q, F617 L, L618P, V6201, A716S, A716T, L735R, T740I, R775K, W785R, E797D, E797K, P799A, P799R, P799S, P799 L, G800D, K801E, P827H, F471del, N797del). The remaining cells are plated in the same manner, in a 384, white-well, clear-bottom, tissue-culture treated plate for expression and relative cell number determination. Plates are placed in the incubator at 37° C. overnight.
Compounds were brought to 10 mM in DMSO. DMSO concentration was kept constant throughout the dilution of any compound. DMSO negative control and concentration-response curves were nanoliter-spotted via PICO8 automated dispenser at 5× test concentration into a 384w clear polypropylene plate containing 1×HBSS+20 mM HEPES buffer. A predetermined concentration equivalent to the EC80 of TRPV4 agonist on hTRPV4 was prepared at 6× in 1×HBSS+20 mM HEPES and loaded into a separate 384-well v-bottom polypropylene plate.
Approximately 18 hours post-transfection, the cell plates were removed from the incubator and equal volume (25 uL) Calcium 6 dye was gently added. Calcium 6 dye containing probenecid (final 5 mM) was prepared per manufacturer's instructions. Cell plate was returned to the incubator for 1 hour, at 37° C.
FLIPR Penta was programmed to add compound using the following settings • Pipettor Head=384 • Read Mode 1 Excitation Wavelength=470_495 • Read Mode 1 Emission Wavelength=515_575 • Read Mode 1 Exposure=0.1000 • Read Mode 1 Gain=6.50 • Read Mode 1 Excitation Intensity=20 • Volume of addition=12.5 μL • Height=40 μL • Speed=15 μL/second
Raw data was exported and analyzed for maximum signal (RFU) after agonist addition—the average baseline (RFU) in the first 15 seconds per well. Data was plotted in GraphPad Prism to determine EC50 or IC50 of the molecules.

[7] = human clinical trials, background statement; cited from earlier work
[8] = 100 pmol/mL recombinant human CYP3A4, 37° C., 0-25 min

Chain of recombinant human CYP3A4 enzyme (P08684 whole entry): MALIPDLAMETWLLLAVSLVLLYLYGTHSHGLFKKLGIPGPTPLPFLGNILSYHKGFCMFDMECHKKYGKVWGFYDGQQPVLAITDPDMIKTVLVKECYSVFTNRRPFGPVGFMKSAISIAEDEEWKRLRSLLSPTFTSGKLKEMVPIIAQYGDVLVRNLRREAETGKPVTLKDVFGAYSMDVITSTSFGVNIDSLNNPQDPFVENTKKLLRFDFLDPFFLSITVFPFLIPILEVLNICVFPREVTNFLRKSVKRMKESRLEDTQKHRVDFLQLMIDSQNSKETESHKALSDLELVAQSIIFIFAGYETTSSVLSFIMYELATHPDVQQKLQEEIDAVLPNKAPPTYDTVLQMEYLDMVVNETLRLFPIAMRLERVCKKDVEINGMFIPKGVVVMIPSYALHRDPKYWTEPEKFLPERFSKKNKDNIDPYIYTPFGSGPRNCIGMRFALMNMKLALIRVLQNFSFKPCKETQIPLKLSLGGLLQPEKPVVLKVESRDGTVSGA
Chain of Human TRPV4 (Q9HBA0 whole entry): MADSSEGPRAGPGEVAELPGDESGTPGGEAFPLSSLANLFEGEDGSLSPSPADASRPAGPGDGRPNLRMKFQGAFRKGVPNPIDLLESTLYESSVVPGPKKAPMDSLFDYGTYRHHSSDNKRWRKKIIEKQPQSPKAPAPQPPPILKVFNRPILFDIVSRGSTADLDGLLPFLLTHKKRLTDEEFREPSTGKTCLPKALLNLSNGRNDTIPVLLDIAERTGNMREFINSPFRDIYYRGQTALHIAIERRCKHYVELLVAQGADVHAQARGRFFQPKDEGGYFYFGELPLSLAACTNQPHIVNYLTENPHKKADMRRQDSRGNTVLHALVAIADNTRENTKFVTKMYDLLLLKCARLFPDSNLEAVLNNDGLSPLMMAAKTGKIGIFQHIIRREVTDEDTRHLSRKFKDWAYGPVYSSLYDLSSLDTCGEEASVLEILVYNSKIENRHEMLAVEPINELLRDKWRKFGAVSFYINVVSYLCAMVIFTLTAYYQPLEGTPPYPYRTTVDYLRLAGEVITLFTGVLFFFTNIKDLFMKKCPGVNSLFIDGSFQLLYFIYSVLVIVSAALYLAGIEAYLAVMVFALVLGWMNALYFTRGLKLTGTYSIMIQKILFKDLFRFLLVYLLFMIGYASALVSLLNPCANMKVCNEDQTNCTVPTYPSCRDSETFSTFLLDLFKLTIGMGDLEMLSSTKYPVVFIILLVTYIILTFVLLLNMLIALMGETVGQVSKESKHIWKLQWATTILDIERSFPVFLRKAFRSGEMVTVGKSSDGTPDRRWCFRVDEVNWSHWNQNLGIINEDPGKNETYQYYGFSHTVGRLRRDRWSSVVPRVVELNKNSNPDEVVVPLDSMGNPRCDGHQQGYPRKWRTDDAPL

Question: Which results are given for CC(C)(O)c1cnc(N2C[C@@]3(CC[C@H]4C[C@@]4(Cn4cnc5ccc(C#N)cc54)C3)OC2=O)cn1 (single isomer, unassigned) [Example 8]?
Answer: CYP3A4 Clint ([1]; human, recombinant enzyme): <0.07, <0.07 μL/min/pmol CYP450; Hepatocytes predicted clearance in rat (Hepatocytes [2]): 54.5 mL/min/kg; Hepatocytes predicted clearance in dog (Hepatocytes [3]): 30 mL/min/kg; Hepatocytes predicted clearance in cyno (Hepatocytes [4]): 37.5 mL/min/kg; Hepatocytes predicted clearance in mouse (Hepatocytes [5]): 281.2 mL/min/kg; Hepatocytes predicted clearance in human (Hepatocytes [6]): < 0.17 mL/min/kg; IC50 (Human TRPV4): 391 nM

Question: For CC(C)(O)c1cnc(N2C[C@@]3(CCC[C@](C)(Cn4cnc5ccc(C#N)cc54)C3)OC2=O)cn1 [GSK2798745, reference compound], which “CYP3A4 Clint” value ([1]; human, recombinant enzyme) is on record?
Answer: 0.18 μL/min/pmol CYP450

Question: What about the “Metabolic Stability in Recombinant Human CYP3A4 + NADPH (% remaining after 25 min)” value ([1]; human, recombinant enzyme) of the same compound?
Answer: 69.6%

Question: And the “efficacy across several human disease indications” value [7]?
Answer: failed to show efficacy

Question: What about the “Hepatocytes predicted clearance in rat” value (Hepatocytes [2]) of the same compound?
Answer: 20.7 mL/min/kg

Question: What about the “Hepatocytes predicted clearance in dog” value (Hepatocytes [3]) of the same compound?
Answer: 7.17 mL/min/kg

Question: What about the “Hepatocytes predicted clearance in cyno” value (Hepatocytes [4]) of the same compound?
Answer: 21.5 mL/min/kg

Question: And the “Hepatocytes predicted clearance in mouse” value (Hepatocytes [5])?
Answer: 44.3 mL/min/kg

Question: And the “Hepatocytes predicted clearance in human” value (Hepatocytes [6])?
Answer: < 0.17 mL/min/kg

Question: What about the IC50 (Human TRPV4) of the same compound?
Answer: 10 nM

Question: Which results are given for CC(C)(O)c1cnc(N2C[C@@]3(CCC(F)(F)[C@H](Cn4cnc5ccc(C#N)cc54)C3)OC2=O)cn1 [Example 2, 1-(((5S,7S)-8,8-Difluoro-3-(5-(2-hydroxypropan-2-yl)pyrazin-2-yl)-2-oxo-1-oxa-3-azaspiro[4.5]decan-7-yl)methyl)-1H-benzo[d]imidazole-6-carbonitrile]?
Answer: CYP3A4 Clint [1, 8]: 0.08 μL/min/pmol CYP450 and < 0.07 μL/min/pmol CYP450; Hepatocytes predicted clearance in rat (Hepatocytes [2]): < 0.17 mL/min/kg; Hepatocytes predicted clearance in dog (Hepatocytes [3]): 1.3 mL/min/kg; Hepatocytes predicted clearance in cyno (Hepatocytes [4]): 34.8 mL/min/kg; Hepatocytes predicted clearance in mouse (Hepatocytes [5]): 31 mL/min/kg; Hepatocytes predicted clearance in human (Hepatocytes [6]): < 0.17 mL/min/kg; IC50 (Human TRPV4): 217 nM

Question: Which results are given for CC(C)(O)c1cnc(N2C[C@@]3(CCC(F)(F)[C@](C)(Cn4cnc5ccc(C#N)cc54)C3)OC2=O)cn1 [Example 15, 1-(((5S,7S)-8,8-Difluoro-3-(5-(2-hydroxypropan-2-yl)pyrazin-2-yl)-7-methyl-2-oxo-1-oxa-3-azaspiro[4.5]decan-7-yl)methyl)-1H-benzo[d]imidazole-6-carbonitrile]?
Answer: CYP3A4 Clint [1, 8]: 0.09 μL/min/pmol CYP450 and < 0.07 μL/min/pmol CYP450; Metabolic Stability in Recombinant Human CYP3A4 + NADPH (% remaining after 25 min) ([1]; recombinant Human CYP3A4 + NADPH): 91.3%; Hepatocytes predicted clearance in rat (Hepatocytes [2]): 4.5 mL/min/kg; Hepatocytes predicted clearance in dog (Hepatocytes [3]): 4.33 mL/min/kg; Hepatocytes predicted clearance in cyno (Hepatocytes [4]): 28.3 mL/min/kg; Hepatocytes predicted clearance in mouse (Hepatocytes [5]): 27.8 mL/min/kg; Hepatocytes predicted clearance in human (Hepatocytes [6]): 3.83 mL/min/kg; IC50 (Human TRPV4): 8 nM
